{
  "source": "patent US20230203471A1",
  "about": "“METHOD AND PLATFORM FOR DISRUPTING INTRACELLULAR MICROTUBULES” (National Tsing Hua University, priority 2021, published 2023)",
  "key": {"spastin": {"molecular_target": "T1, spastin (Mus musculus, UniProt Q9QYY8, K308Q/K309Q/K310Q)", "T1 construct": "expressed in transfected cells; host or cells: HeLa (CCL-2)", "T1 sequence (Q9QYY8 with tags, fused parts or gaps K308Q/K309Q/K310Q)": "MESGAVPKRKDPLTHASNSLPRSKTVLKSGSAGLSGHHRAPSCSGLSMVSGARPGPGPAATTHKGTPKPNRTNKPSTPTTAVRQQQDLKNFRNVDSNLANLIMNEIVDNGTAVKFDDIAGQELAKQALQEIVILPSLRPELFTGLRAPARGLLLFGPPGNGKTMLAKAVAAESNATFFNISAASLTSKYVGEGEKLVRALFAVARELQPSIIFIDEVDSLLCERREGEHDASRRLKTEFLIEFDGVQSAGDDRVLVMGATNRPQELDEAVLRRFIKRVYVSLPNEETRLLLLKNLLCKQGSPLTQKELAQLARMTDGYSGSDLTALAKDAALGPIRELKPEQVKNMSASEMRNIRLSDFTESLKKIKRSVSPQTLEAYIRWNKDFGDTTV", "assay": "Reversal of MT disruption by spastin inhibition and MT regrowth in HeLa cells", "format": "cell-based", "conditions": "spastazoline 10 µM added after 28 min rapamycin; dNSpastin3Q-YFP-FKBP and EMTB-CFP-FRB HeLa cells", "protocol": "FIGS. 2S to 2U show inhibition of spastin activity reverses MT disruption. In FIG. 2S, HeLa cells co-transfected with EMTB—CFP—FRB (black) and dNSpastin3Q-YFP-FKBP (green) were pre-treated with rapamycin for 28 min to induce acute MT disassembly; spastazoline (10 µM), a spastin inhibitor, was then added to the cultures to halt the MT disruption system; arrows indicate the centrosome-derived MTs; scale bar, 10 µm. […] Data (red) are shown as the mean ± SD. A Student’s t-test was performed to generate the indicated p-value.\nIntriguingly, nascent MTs from the fragments derived from dNspastin3Q-mediated cleavage assembled at a polymerization rate of 0.92 ± 0.04 µm/sec, which was slightly slower than the regrowth rate of 1.17 ± 0.07 µm/sec for MTs from centrosomes (see FIG. 2U). […] In particular, microtubule filaments are composed of microtubule molecules. If they are only disassembled into microtubule molecules and the raw materials are still there, they would have the opportunity to quickly assemble them back. But if the microtubule molecules are degraded and the raw materials are gone, they can’t be quickly reassembled. In summary, rapid recruitment of dNSpastin3Q-YFP-FKBP onto MTs efficiently triggered MT disassembly in living cells upon dimerization induction."}, "[1]": {"molecular_target": "TagRFP-FRB-A1AY1 (Artificial Sequence)", "assay": "live-cell imaging, addition of rapamycin"}, "[2]": {"test_system": "tyrosinated MTs in COS7 cells", "assay": "Targeting of TagRFP-FRB-A1AY1 and rapamycin-induced recruitment onto A1AY1-bound MTs", "format": "cell-based, African green monkey", "protocol": "(§1) The procedures of immunofluorescence staining are as follows. Cells cultured in borosilicate glass Lab-Tek eight-well chambers (Nunc) were fixed in 4% paraformaldehyde (Electron Microscopy Sciences) at room temperature for 15 min. Fixed cells were permeabilized with 0.1% Triton X-100 and then incubated in blocking solution (phosphate-buffered saline with 2% bovine serum albumin) for 30 min at room temperature. To label cytosolic MTs, primary ciliary membrane, and axonemal MTs, cells were incubated for 1 hr at room temperature with mouse antibody against α-tubulin (1:500; Sigma Aldrich, T6199), rabbit antibody against Arl13b (1:500; Proteintech, 17711-1-AP), mouse antibody against glutamylated tubulin (1:100; Adipogen, AG-20B-0020-C100), mouse antibody against acetylated tubulin (1:500; Sigma Aldrich, T7451), rat antibody against tyrosinated tubulin (1:100; Sigma Aldrich, MAB1864), and mouse antibody against detyrosinated tubulin (1:100; MERCK, AB3201) each of which was diluted in blocking solution. Cells were then washed with PBS and incubated for 1 hr with appropriate secondary antibodies (1:1000 dilution; Thermo Fisher) at room temperature.\nMTs undergo various post-translational modification (PTMs) for spatiotemporally regulating their properties and functions. The inventors next turned efforts to precisely disrupt MTs with specific PTMs. […]"}, "[3]": {"test_system": "EMTB-CFP-FRB-labeled MTs in HeLa cells", "assay": "Rapamycin-induced translocation of FKBP-tagged proteins onto EMTB-CFP-FRB-labeled MTs (FRET, live-cell imaging)", "format": "cell-based", "conditions": "100 nM rapamycin, FRET signal", "protocol": "(§2) The procedures of live-cell imaging are as follows. Live transfected cells cultured on poly(d-lysine)-coated glass coverslips (Hecht Assistent) were treated with either 100 nM rapamycin for rapid induction of protein dimerization and translocation or MT-targeting agents (10 µM nocodazole or 500 µM colchicine) during imaging. Live-cell imaging was conducted on a Nikon T1 inverted fluorescence microscope (Nikon) with a 60× oil objective (Nikon), a Prime camera (Photometrics), and 37° C., 5% CO2 heat stage (Live Cell Instrument). Rapid recruitment of proteins of interest (POIs) was imaged at 5- or 10-sec intervals, whereas the process of MT disruption was imaged at 1-min intervals. Images were obtained using Nikon NIS-Elements AR software and processed with Huygens Deconvolution Software (Scientific Volume Imaging). Image analysis was mainly performed with Nikon NIS-Elements AR software.\nFIGS. 1B and 1C show the MT-binding domain of ensconsin-cyan fluorescent protein-FKBP-rapamycin binding domain (EMTB—CFP—FRB) localizes to cytosolic MTs. […] Scale bar, 10 µm. […] Subsequently, the addition of rapamycin to HeLa cells led to the rapid translocation of yellow fluorescent protein-tagged FKBP (YFP—FKBP) onto EMTB—CFP—FRB-labeled MTs as evidenced by an increased FRET (fluorescence resonance energy transfer) signal on MTs (T½ of translocation: 5.73 ± 0.54 sec; FIGS. 1D and 1E). […]"}, "[4]": {"test_system": "cytosolic MTs in HeLa cells", "assay": "Immunofluorescence staining of α-tubulin in HeLa cells expressing spastin constructs", "format": "cell-based", "conditions": "HeLa cells co-transfected with EMTB-CFP-FRB", "protocol": "as §1\nSpastin is a MT-cleaving enzyme that is ubiquitous in nearly all eukaryotic cells. Expression of full-length spastin (SpastinFL-YFP; the amino acid sequence of spastin is SEQ ID NO: 1) and truncated spastin without the N-terminal 1-140 amino acids (dNSpastin-YFP) in HeLa cells removed significant amounts of cytosolic MTs, 47.45% and 42.86%, respectively, relative to YFP-transfected control cells (See FIGS. 2A to 2C). This means that both full-length spastin and truncated spastin without N-terminal 1-140 amino acids have the effect on disrupting microtubules. FIGS. 2A to 2C show the microtubule cleavage activity of artificially engineered spastin enzyme. […] The dotted line on the right indicates the periphery of the cell that expresses spastin. […] SpastinFL expressed in cells can disrupt the intracellular microtubules. Making SpastinFL be located in the cytosol, truncated spastin would also disrupt the intracellular microtubules, so it would also be located in the cytosol. […] The truncated spastin is used in the subsequent experiments. […] Compared with the YFP control group, both SpastinFL-YFP and dNSpastrin-YFP can disrupt about 40% of the microtubules. Thus the N-terminal fragment (1-140 amino acids) was dispensable for Spastin-mediated MT severing. […]"}, "[5]": {"test_system": "intracellular microtubules in HeLa cells", "assay": "Live-cell imaging of MT disruption (MT filament area) in transfected HeLa cells", "format": "cell-based", "conditions": "HeLa cells co-transfected with EMTB-CFP-FRB, upon rapamycin (100 nM) treatment", "protocol": "as §2\nThe procedures of measurement of MT filament area are as follows. The MT filaments in living cells were labeled with EMTB-CFP-FRB and imaged in real time (RAW image). The rolling ball correction was used to remove the cytosol background from the RAW images, which was carried out with the Nikon NIS-Elements AR software. Images were processed to generate the binary MT filament pattern via the Otsu threshold and analyzed by Fiji software.\nFIGS. 2D and 2E show rapidly recruiting engineered spastins onto MTs. […] The top three layers are cells that simultaneously express EMTB-CFP-FRB and dNSpastin3Q-YFP-FKBP. The lower three layers are cells that simultaneously express EMTB-CFP-FRB and dNSpastin-YFP-FKBP-C2Lact. The color bar on the right indicates the brightness value represented by the color of the FRET signal. […] Data are shown as the mean ± S.E.M. It was noteworthy that MT disruption triggered by dNSpastin3Q-YFP-FKBP upon rapamycin treatment (T½ = 11.05 ± 1.52 min) was much faster than that of dNSpastin-YFP-FKBP-C2Lact upon rapamycin treatment (T½ = 53.08 ± 8.08 min), and treatment of two common MTAs, nocodazole (10 µM; T½ = 54.02 ± 10.29 min), colchicine (500 µM; T½ = 94.28 ± 8.63 min; see FIGS. 2F to 2J). […] In FIG. 2H, HeLa cells transfected with the indicated constructs were treated with nocodazole (Noc)([…], a type of MTA), colchicine (Col)(500 µM, a type of MTA), or rapamycin (Rapa)(100 nM); scale bar, 10 µm. […] Data are shown as the mean ± S.E.M. Student’s t-tests were performed, with the resulting p-values indicated."}},
  "data": [
    {"molecule": "CC(C)[C@@H]1CN(c2nc(Nc3cc(C(C)(C)C)[nH]n3)c3cc[nH]c3n2)CCN1", "note": "[spastazoline, reference compound]", "values": [
      {"measurement": "effect of spastin inhibitor on rapamycin-mediated MT disruption", "setting": "spastin", "result": "swiftly reversed rapamycin-mediated acute MT disruption"}
    ]},
    {"molecule": "TagCFP, tagged FKBP (TagCFP-FKBP)", "values": [
      {"measurement": "T½ of recruitment", "setting": "[1]", "result": 1.08, "unit": "min"}
    ]},
    {"molecule": "TagCFP—FKBP: cyan fluorescent protein TagCFP-tagged FKBP [reference compound]", "values": [
      {"measurement": "T½ of recruitment onto TagRFP-FRB-A1AY1-bound MTs", "setting": "[2]; addition of rapamycin", "result": "1.078 ± 0.268", "unit": "min"}
    ]},
    {"molecule": "YFP—FKBP: yellow fluorescent protein-tagged FK506-binding protein [reference compound]", "values": [
      {"measurement": "T½ of translocation from cytosol onto EMTB-CFP-FRB-labeled MTs", "setting": "[3]", "result": "0.0955 ± 0.009", "unit": "min"}
    ]},
    {"molecule": "dNSpastin-YFP-FKBP-C2Lact: truncated spastin tagged with YFP-FKBP and plasma membrane-binding sequence C2Lact", "values": [
      {"measurement": "T½ of translocation from cytosol onto EMTB-CFP-FRB-labeled MTs", "setting": "[3]", "result": "0.924 ± 0.14", "unit": "min"},
      {"measurement": "MT disruption after rapamycin treatment", "setting": "[4]; 100 nM rapamycin 1 hr", "result": "robustly disrupted MTs"},
      {"measurement": "MT-severing activity before rapamycin treatment", "setting": "[4]; 0.1% DMSO", "result": "low MT-severing activities"},
      {"measurement": "T½ of MT disruption", "setting": "[5]", "result": "53.08 ± 8.08", "unit": "min"}
    ]},
    {"molecule": "TagRFP—FRB—A1AY1: A1AY1 (SEQ ID NO:16), targets tyrosinated MTs, tagged with FRB and red fluorescent protein TagRFP (protein) MVSKGEELIKENMHMKLYMEGTVNNHHFKCTSEGEGKPYEGTQTMRIKVVEGGPLPFAFDILATSFMYGSRTFINHTQGIPDFFKQSFPEGFTWERVTTYEDGGVLTATQDTSLQDGCLIYNVKIRGVNFPSNGPVMQKKTLGWEANTEMLYPADGGLEGRTDMALKLVGGGHLICNFKTTYRSKKPAKNLKMPSVYYVDHRLERIKEADKETYVEQHEVAVARYCDLPSKLGHKLNLYKILWHEMWHEGLEEASRLYFGERNVKGMFEVLEPLHAMMERGPQTLKETSFNQAYGRDLMEAQEWCRKYMKSGNVKDLLQAWDLYYHVFRRISKMATVKFKYKGEEKQVDISKILSVGRYGKLIHFLYDLGGGKAGMGMVSEKDAPKELLQMLEKQKK", "values": [
      {"measurement": "targeting of construct to MT subtypes", "setting": "[2]; COS7 cells, immunostaining", "result": "preferentially targeted to generic MTs and tyrosinated MTs but not to detyrosinated MTs"}
    ]}
  ]
}
